Drawing on patent publication EP2493892B1, “QUINUCLIDINE COMPOUNDS AS ALPHA-7 NICOTINIC ACETYLCHOLINE RECEPTOR LIGANDS” (Bristol-Myers Squibb Company, priority 2009, dated 2011), this text covers EC50 for one compound.

This experiment has as its target T1, α-7 nicotinic ACh receptor ion channels expressed in mammalian HEK 293 cells (Rattus norvegicus, UniProt Q05941).
T1 construct: expressed in transfected cells
Kind of experiment: Ca2+-sensitive, fluorescence-based assay for α-7 nicotinic acetylcholine receptor channel function in mammalian cells (FLIPR). The settings on record: agonist activity, Ca2+ flux, read-out: FLIPR α7 activity rating (EC50). It counts as cell-based. The protocol:
• I) α7 Nicotinic Acetycholine Receptor Binding. Membranes were prepared for binding using HEK293 cells stably expressing the rat α7 nicotinic acetycholine receptor (rat α7 nAChR). Cells were homogenized at 4°C in hypotonic lysis buffer consisting of 10 mM Tris (pH 7.4), 5 mM EDTA and protease inhibitors and centrifuged at 32000 xg for 20 minutes. The pellet was washed once in membrane wash buffer consisting of 50 mM Tris (pH 7.4), 1 mM EDTA and protease inhibitors and centrifuged at 32000 xg for 20 minutes. This pellet was then resuspended in assay buffer consisting 50 mM KH2PO4 (pH 7.4 at 25°C), 1 mM EDTA, 0.005 % Triton-X 100 and 0.1% (v/v) Sigma Protease Inhibitor Cocktail. Aliquots were then frozen in dry ice/ethanol and kept at -80°C until the day of the assay. • II) A Ca^2+ -Sensitive, Fluorescence-Based Assay α-7 for Nicotinic Acetylcholine Receptor Channel Function In Mammalian Cells ("FLIPR"). Summary: Lead compounds are evaluated for agonist activity at α-7, α3β4, α4αβ2, and α1β1δ1ε sub-types of nicotinic ACh receptor ion channels expressed in mammalian HEK 293 cells. Agonist potency and efficacy values are determined from kinetic fluorescence Ca^2+ influx measurements made using a 384 well FLIPR (Fluorescence Image Plate Reader). […] The basal fluorescence from the cells is monitored in real time, followed by the acute addition of test compounds. […]
A general note: A change in cytosolic calcium serves as a functional read-out for many receptors and channels.

T1 sequence (Q05941 23-502): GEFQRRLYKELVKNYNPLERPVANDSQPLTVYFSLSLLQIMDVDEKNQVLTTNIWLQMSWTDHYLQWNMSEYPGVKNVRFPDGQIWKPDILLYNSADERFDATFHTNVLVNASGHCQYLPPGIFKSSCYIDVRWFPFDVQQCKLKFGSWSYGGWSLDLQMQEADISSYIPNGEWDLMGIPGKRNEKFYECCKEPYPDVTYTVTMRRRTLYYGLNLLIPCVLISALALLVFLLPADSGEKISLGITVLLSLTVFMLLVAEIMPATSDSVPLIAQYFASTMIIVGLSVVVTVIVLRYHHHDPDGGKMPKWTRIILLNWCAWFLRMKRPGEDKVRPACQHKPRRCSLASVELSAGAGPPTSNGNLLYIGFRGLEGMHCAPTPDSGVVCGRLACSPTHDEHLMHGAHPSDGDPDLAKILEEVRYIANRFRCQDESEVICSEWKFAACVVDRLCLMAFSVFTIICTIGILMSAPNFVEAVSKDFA

As a reminder, the EC50 is the midpoint of the concentration-response curve. With `c1cncc(-c2ccnc(NC3=NC[C@@]4(CN5CCC4CC5)O3)c2)c1` [Example 1, (R)-N-(3,4'-Bipyridin-2'-yl)-4H-1'-azaspiro[oxazole-5,3'-bicyclo[2.2.2]octan]-2-amine], the EC50 was below 0.1 µM.
